Measured values: patent publication US20070110726A1, “Rust disease control by Aphanocladium album and/or Beauveria brongniartii” (priority 2005, published 2007)
Starred links: 1 amine or outer side, 2 acyl side, 3 side chain; linkers in the order of their positions; H or OH if unused. Positions of bridges follow the written chain, without caps; N, C: chain ends. Non-standard residues stand in square brackets, D forms with d. Residues, ends and D or L forms follow the SMILES beside them. Chains are numbered I, II in the order given. Actinocin(9to1) = Cc1c2oc3c(C)ccc(C(=O)[*:1])c3nc-2c(C(=O)[*:2])c(N)c1=O; NMeV = CN[C@H](C(=O)O)C(C)C; Sar = CNCC(=O)O

Assays:
K-562 cells = test: MTS cytotoxicity assay; assay type: cell-based; conditions: 3 days exposure
Source text: di-Methylthiozol Tetrazolium (MTT assay): Proliferation assays are used in cell biology for the study of growth factors, cytokines and cytotoxic agents. There are several ways to measure the number of cells in a proliferation assay. MTT assay is a rapid and convenient method of determining viable cells in proliferation, cell attachment, chemotaxis and apoptosis assays.
di-Methylthiozol Tetrazolium Salt (MTS assay): MTS assay is a rapid and convenient method of determining viable cells in proliferation or cytotoxic assays. The use of this analog of MTT, provides a stable reaction over time. MTS assay is based on the cellular conversion of a tetrazolium salt into a formozan product that is soluble in tissue culture media and can easily be detected using a 96-well plate reader. This conversion is presumably accomplished by NADPH or NADH produced by dehydrogenases enzymes present in metabolically active cells. MTS is preferred over MTT because the MTS formazan product is soluble in tissue culture medium. In addition the MTS assay require fewer steps than MTT assay. Consequently, we have used MTS for our testing. MTS assay-Method: K-562 (typical cancer cell line used for cytotoxicity assays) cells were seeded in 96-well plates at a concentration of 2.5×10^4 cells/ml. Oosporein and Actinomycin D (a known cytotoxic compound) were prepared in 10% DMSO and added to cells the next day (final DMSO concentration was 0.5%). Oosporein was assessed at a final concentration on the cells of 100, 50, 25, 12.5, 6.25 and 3.125 μg/ml (2-fold dilutions) in quadruplicate. A known toxic agent, Actinomycin D, was added at 100, 20, 4, 0.8 and 0.16 ng/ml (5-fold dilutions). After 3 days exposure to test compound or controls, MTS reagent was prepared and added to the cells. After 3 hours, the accumulation of formazan product was determined by measuring the absorbance at 490 nm. The background absorbance of the cells detected at 630 nm was then subtracted from the initial 490 nm reading. Percent toxicity was determined using the following formula: [formula] [formula] […]

rusts = test: Conversion of infective urediniospores to non-infective teliospores in rusts
[1] = test system: strain NC of Puccinia coronata; test: Greenhouse experiment, pure compound Oosporein sprayed on inoculated oat seedlings (telia induction); assay type: in vivo, Puccinia coronata on oat (cv. Brooks) seedlings; conditions: table title strain NC (method text: strain MN); for Percentage of plants with telia: oat cv. Brooks seedlings, pure compound at 100 μg/ml applied four days after inoculation, mean of five replicates; for Telia intensity Rating: scale 0 = healthy to 3.0 = >15% of leaf area with telia, pure compound 100 μg/ml
Method: iv) Both crude extracts and fractions were tested at 10 mg/ml and the pure compound at 100 μg/ml
1.c. Greenhouse Experiments with the Pure Compound, Oosporein Isolated from of A. album (Aa 100 Isolate):
The pure compound (Oosporein) isolated from A. album (Aa 100) dissolved in 500 μl of DMSO and 9.5 ml of sterile distilled water (SDW) with 20 μl of Tween 80. The controls consisted of 500 μl of DMSO in 9.5 ml of SDW with 20 μl of Tween 80. and 10 ml of SDW with 20 μl of Tween 80. Ten ml of each treatment were atomized on 2-3 week-old, oat seedlings previously inoculated with strain MN of Puccinia coronata. Treatments were applied four days after inoculation when flecking symptoms of infection were present, but before uredia were observed (FIG. 1). There were five replicates of each treatment arranged in a randomized complete block design.

Structure (SMILES) | Percent toxicity on K-562 cells (K-562 cells; 100 ng/ml) | time to conversion of infective urediniospores to non-infective teliospores (rusts; after application) | conversion of infective urediniospores to non-infective teliospores (rusts; oat, bareley, wheat, pine and soybean rust) | Percentage of plants with telia [1] | Percentage of plants with telia ([1]; listed as Ooosporein) | Telia intensity Rating [1] | Telia intensity Rating ([1]; listed as Ooosporein) | toxicity on K-562 cells (K-562 cells; 25 μg/ml or less) | toxicity on K-562 cells (K-562 cells; 100 and 50 μg/ml)
Cc1c2oc3c(C)ccc(C(=O)N[C@@H]4C(=O)N[C@H](C(C)C)C(=O)N5CCC[C@H]5C(=O)N(C)CC(=O)N(C)[C@@H](C(C)C)C(=O)O[C@@H]4C)c3nc-2c(C(=O)N[C@@H]2C(=O)N[C@H](C(C)C)C(=O)N3CCC[C@H]3C(=O)N(C)CC(=O)N(C)[C@@H](C(C)C)C(=O)O[C@@H]2C)c(N)c1=O [Actinomycin D, reference compound] (I: T[dV]P[Sar][NMeV] / II: T[dV]P[Sar][NMeV]; ester I:1-I:C, II:1-II:C; linker I:N-II:N via Actinocin(9to1)) | ~100% | – | – | – | – | – | – | – | –
CC1=C(O)C(=O)C(C2=C(O)C(=O)C(C)=C(O)C2=O)=C(O)C1=O [Oosporein] | – | with in three days of application | convert infective urediniospores to non-infective teliospores | 83% | higher percentage of plants with telia | 8.2 | greater intensity of telia | no toxicity whatsoever | very mild toxicity
